These results are taken from ChEMBL document CHEMBL3046543, “Larvicidal and adulticidal activity of alkylphthalide derivatives from rhizome of Cnidium officinale against Drosophila melanogaster” (J Agric Food Chem, 2005).

What all share (assay type): functional
In assay [1] the test system is Drosophila melanogaster. As to the kind of experiment: Insecticidal activity against Drosophila melanogaster larvae assessed as mortality compound treated in diet at 25 degC and >90% RH treated for 8 days. As to conditions: feed or water, 192 h.
The subject of assay [2] is Drosophila melanogaster. In words: Relative toxicity, LD50 for rotenone Drosophila melanogaster adulticidal activity to LD50 for compound Drosophila melanogaster adulticidal activity.
Assay [3] relates to Drosophila melanogaster. As to the kind of experiment: Relative toxicity, LC50 for rotenone Drosophila melanogaster larvicidal activity to LC50 for compound Drosophila melanogaster larvicidal activity.
For assay [4], the system named is Drosophila melanogaster. As to the kind of experiment: Insecticidal activity against 5 to 7 days old adult Drosophila melanogaster assessed as mortality measured as inability to move compound treated in diet at 25 degC and >90% RH treated for 8 days.

In the case of `CCCC[C@@H]1OC(=O)c2ccccc21` [(3S)-BUTYLPHTHALIDE], in the assay on Drosophila melanogaster [1], the LC50 (commonly the concentration lethal to half of the exposed cells or organisms) came to 4.99 mM. For the same compound, the Ratio with Drosophila melanogaster [2] worked out at 0.62. Further, the RatioLC50 with Drosophila melanogaster [3] is listed as 0.004. In the assay with Drosophila melanogaster [4], the LD50 is 5.93 µg.
Taken in the same sequence, the figures for `CCCC[C@@H]1OC(=O)[C@@H]2C=CCC[C@H]12` [CNIDILIDE] were more than 16 mM, 0.4, less than 0.001 and 9.17 µg.
Taken in the same sequence, the figures for `CCC/C=C1\OC(=O)C2=C1CCC=C2` [LIGUSTILIDE] were 2.54 mM, less than 0.07, 0.009 and more than 50 µg.
The corresponding values for `CCCC[C@@H]1OC(=O)C2=CCCC[C@H]21` [NEOCNIDILIDE] are 9.9 mM, 0.34, 0.002 and 10.82 µg.
`C=C(C)[C@H]1Cc2c(ccc3c2O[C@@H]2COc4cc(OC)c(OC)cc4[C@@H]2C3=O)O1` [ROTENONE]: the 50% lethal concentration (LC50) in the assay with Drosophila melanogaster [1] amounted to 0.02 mM. In addition, in the assay on Drosophila melanogaster [2], the Ratio was 1. The compound further gave a RatioLC50 in the assay on Drosophila melanogaster [3] of 1. In addition, in the assay on Drosophila melanogaster [4], the LD50 stood at 3.68 µg.
